We go through ten compounds from patent US20030129262A1, “Methionine restriction for cancer therapy” (priority 2001, published 2003).

Structures can show the parent of a compound that is named as a salt. Starred links: 1 amine or outer side, 2 acyl side, 3 side chain; linkers in the order of their positions; H or OH if unused. Positions of bridges follow the written chain, without caps; N, C: chain ends. Non-standard residues stand in square brackets, D forms with d. Residues, ends and D or L forms follow the SMILES beside them. Chains are numbered I, II in the order given. Actinocin(9to1) = Cc1c2oc3c(C)ccc(C(=O)[*:1])c3nc-2c(C(=O)[*:2])c(N)c1=O; NMeV = CN[C@H](C(=O)O)C(C)C; Sar = CNCC(=O)O Bounds are passed on as bounds.

Series [1] has as its system thymidylate synthase. The series can be described thus: Thymidylate synthase (TS) assay in PC-3 cells. It counts as cell-based, Human. Particulars: PC3 cells, within 8 hours. The method, then: (§1) Human prostate cancer PC3 cells (American Type Culture Collection, Rockville, Md.) were maintained in RPMI-1640 (Life Technologies, Inc., Gaithersburg, Md.) supplemented with 10% FBS (HyClone Laboratories, Logan, Utah) at 37° C. in 5% CO2. Methionine restriction experiments were performed in methionine-free RPMI-1640 (Life Technologies, Inc.) supplemented with 10% FBS and 100 μM Homocysteine (Sigma, St. Louis). Folate restriction experiments were performed in folate-free RPMI-1640 medium (Life Technologies, Inc.) supplemented with 10% FBS. Primary culture prostate epithelial cells (PrEC) were purchased from BioWhittaker, Inc. and Clonetics Products (Walkersville, Md.). PrEC was maintained in the prostate epithelial basal medium and methionine restriction was performed in prostate epithelial cell labeling medium without methionine supplemented with 100 μM homocysteine, which were obtained from the company.
TS assay was performed as previously described (24). Briefly, 25 μl of cell extract containing 50 μg protein, 5 μl 6.5 mM 5,10-CH2-THF, and 10 μl of Tris.HCl buffer were combined at room temperature. […] After centrifugation, 150 μl of the supernatant were counted by liquid scintillation. […]

Series [2] relates to thymidylate synthase. Description: Western blot of TS protein in PC3 cells. It counts as cell-based, Human. The procedure: as §1
Aliquots of samples with 50 μg of protein, determined by the Bradford assay (BioRad, Hercules, Calif.), were mixed with loading buffer (final concentrations of 62.5 mM Tris-HCl (pH 6.8), 2.3% SDS, 100 mM dithiothreitol, and 0.005% bromophenol blue), boiled, fractionated in a 10% SDS-PAGE, and transferred onto a 0.45-μm nitrocellulose membrane by electroblotting (BioRad). […]
A general note: In western blotting, separated proteins are transferred to a membrane and probed.

The test system of series [3] is PC-3 cells. Description: HPLC analysis of nucleotide levels. It counts as cell-based, Human. As to conditions: positive control for TS inhibition. The procedure: Cells were washed with phosphate buffered saline (PBS), trypsinized, washed again with PBS, counted, and pelleted. 5×10^5 cells from each sample were mixed with 10 μL 0.6 M trichloroacetic acid. The lysate was incubated at 4° C. for 30 minutes. After centrifugation, the acidic supernatant was transferred to a microcentrifuge tube. An equal volume of ice cold 80% 1,1,2-trichlorotrifluoroethane and 20% tri-n-octylamine was added to the lysate. The mixture was vortexed for 15 seconds and then centrifuged at 14000 g at 4° C. for 5 minutes. The aqueous supernatant was removed and centrifuged at 14000 g at 4° C. for 5 minutes. Samples were stored at −70° C. until use.used.
Clromatographic analyses were performed with a Waters 625 LC System (Waters Corporation, Milford, Mass., USA) consisting of a Waters 625 Fluid Handling Unit with a Rheodyne 9125-080 Manual Injector and 20 μL sample loop, 625E Powerline Controller, and 484 Tunable UV Detector. […]
A series of standards containing varying amounts of dUMP and dTTP ranging from […] was analyzed using the above methodology. The different quantities and their correlating absorption areas existed in a linear relationship. […] This linear equation was used to calculate the quantity of dUMP or dTTP represented by the absorption peaks in the chromatograms generated from our experimental samples.

The conditions of series [4]: cited from earlier work.
In another series the test system is GBM at recurrence. As to conditions: single agent, cited from earlier work.
A further series has as its system Yoshida sarcoma. As to conditions: coadministered with methionine depleted diet, 1.0 mg/kg/day on days 2, 4, 6; cited from earlier work.
In the next series the test system is multiple myeloma. Particulars: oral administration; cited from earlier work.
Series [5] has as its system human breast carcinoma (MX-t) cell line. Particulars: combined with methionine depletion; cited from earlier work.
The next series deals with Hela cells. The series can be described thus: Western blot of caspases, BID, Bcl-2, Hela.
In series [6] the test system is PC-3 cells. Description: Western blot of caspases, BID, Bcl-2, PC-3. Type of series: cell-based, Human.
The test system of series [7] is Hodgkin's Disease and testicular tumors. As to conditions: in vivo; cited from earlier work.

As to `O=c1[nH]cc(F)c(=O)[nH]1` [5-FU, 5-fluorouracil], the “inhibition of TS activity” value with thymidylate synthase [1] worked out at 95%. In addition, in the series with thymidylate synthase [2] (concurrent methionine restriction), the “TS protein accumulation in response to 5-FU” value is “largely abrogated”. The TS protein level result in the series on thymidylate synthase [2] (western blot) is “dramatically increased”. Further, the dUMP/dTTP ratio result with PC-3 cells [3] is reported as “dramatic increase”.

For the compound `Cc1c2oc3c(C)ccc(C(=O)N[C@@H]4C(=O)N[C@H](C(C)C)C(=O)N5CCC[C@H]5C(=O)N(C)CC(=O)N(C)[C@@H](C(C)C)C(=O)O[C@@H]4C)c3nc-2c(C(=O)N[C@@H]2C(=O)N[C@H](C(C)C)C(=O)N3CCC[C@H]3C(=O)N(C)CC(=O)N(C)[C@@H](C(C)C)C(=O)O[C@@H]2C)c(N)c1=O` [Actinomycin D] (I: T[dV]P[Sar][NMeV] / II: T[dV]P[Sar][NMeV]; ester I:1-I:C, II:1-II:C; linker I:N-II:N via Actinocin(9to1)), the “fraction of the dose excreted intact into the bile” value in series [4] (in vivo) is “Half”. Turning to `O=NN(CCCl)C(=O)NCCCl` [Carmustine, 1,3bis (2-chloroethyl)-1-nitrosourea], the “Response rate (responders plus stable disease)” value with GBM at recurrence (Berger et al., 1996) is 29%. In addition, the “median time to progression” value in the series on GBM at recurrence is reported as 22 weeks. `COc1cccc2c1C(=O)c1c(O)c3c(c(O)c1C2=O)C[C@@](O)(C(=O)CO)C[C@@H]3O[C@H]1C[C@H](N)[C@H](O)[C@H](C)O1` [Doxorubicin, 5,12-Naphthacenedione, (8s-cis)-10-[(3-amino-2,3,6-trideoxy-a-L-lyxo-hexopyranosyl)oxy]-7,8,9,10-tetrahydro-6,8,11-trihydroxy-8-(hydroxyacetyl)-1-methoxy-hydrochloride]: in the series on Yoshida sarcoma, the “effectiveness (reduced tumor weight, increased survivability)” value is reported as “enhanced effectiveness”. As for `O=NN(CCCl)C(=O)NC1CCCCC1` [Lomustine, 1-(2-chloro-ethyl)-3-cyclohexyl-1 nitrosourea], the “fraction of radioactivity excreted as degradation products” value in series [4] (oral, 30 mg/m^2 to 100 mg/m^2, within 24 hours) is “about half”. As to `N[C@@H](Cc1ccc(N(CCCl)CCCl)cc1)C(=O)O` [Melphalan, 4-[bis(2-chloroethyl)amino]-L-phenylalanine], in the series on multiple myeloma, the “fraction of patients with favorable response” value was “one third to one half”. For `N.N.[Cl][Pt][Cl]` [cisplatin, Cisplatin], the “Treated tumor growth, % of growth in control mice tumors” value in series [5] was 32%. For the compound `CN[C@@H]1C[C@H]2O[C@@](C)([C@@H]1OC)n1c3ccccc3c3c4c(c5c6ccccc6n2c5c31)C(=O)NC4` [staurosporine], the “active (cleaved) form of caspases by western blot” value in the series with Hela cells is recorded as “detectable”. `CC(=O)O[C@H]1C(=O)[C@@]2(C)[C@H]([C@H](OC(=O)c3ccccc3)[C@]3(O)C[C@H](OC(=O)[C@H](O)[C@@H](NC(=O)c4ccccc4)c4ccccc4)C(C)=C1C3(C)C)[C@]1(OC(C)=O)CO[C@@H]1C[C@@H]2O` [taxol, Taxol]: the “Bcl-2 phosphorylation (upward shift on western blot)” value in the series on PC-3 cells [6] and in the series on Hela cells was “phosphorylated” in each case.

Bleomycin: the “time until improvement is noted” value in series [7] was not above 2 weeks.
